{"source": "ChEMBL document CHEMBL5380790", "about": "(J Med Chem, 2023)", "key": {"[1]": {"experiment": "Plasma clearance in Han Wistar rat at 0.2 mg/kg, iv and measured upto 24 hrs", "assay_type": "ADME, organism-based"}, "[2]": {"experiment": "Efflux ratio of apparent permeability from basolateral to apical side over apical to basolateral side in human Caco-2 cells at 1 uM and measured after 2 hrs by LC-MS/MS analysis", "assay_type": "ADME, cell-based"}, "[3]": {"target": "Mast/stem cell growth factor receptor Kit (Homo sapiens, UniProt P10721, N822K)", "sequence (P10721 26-976 N822K limits assumed)": "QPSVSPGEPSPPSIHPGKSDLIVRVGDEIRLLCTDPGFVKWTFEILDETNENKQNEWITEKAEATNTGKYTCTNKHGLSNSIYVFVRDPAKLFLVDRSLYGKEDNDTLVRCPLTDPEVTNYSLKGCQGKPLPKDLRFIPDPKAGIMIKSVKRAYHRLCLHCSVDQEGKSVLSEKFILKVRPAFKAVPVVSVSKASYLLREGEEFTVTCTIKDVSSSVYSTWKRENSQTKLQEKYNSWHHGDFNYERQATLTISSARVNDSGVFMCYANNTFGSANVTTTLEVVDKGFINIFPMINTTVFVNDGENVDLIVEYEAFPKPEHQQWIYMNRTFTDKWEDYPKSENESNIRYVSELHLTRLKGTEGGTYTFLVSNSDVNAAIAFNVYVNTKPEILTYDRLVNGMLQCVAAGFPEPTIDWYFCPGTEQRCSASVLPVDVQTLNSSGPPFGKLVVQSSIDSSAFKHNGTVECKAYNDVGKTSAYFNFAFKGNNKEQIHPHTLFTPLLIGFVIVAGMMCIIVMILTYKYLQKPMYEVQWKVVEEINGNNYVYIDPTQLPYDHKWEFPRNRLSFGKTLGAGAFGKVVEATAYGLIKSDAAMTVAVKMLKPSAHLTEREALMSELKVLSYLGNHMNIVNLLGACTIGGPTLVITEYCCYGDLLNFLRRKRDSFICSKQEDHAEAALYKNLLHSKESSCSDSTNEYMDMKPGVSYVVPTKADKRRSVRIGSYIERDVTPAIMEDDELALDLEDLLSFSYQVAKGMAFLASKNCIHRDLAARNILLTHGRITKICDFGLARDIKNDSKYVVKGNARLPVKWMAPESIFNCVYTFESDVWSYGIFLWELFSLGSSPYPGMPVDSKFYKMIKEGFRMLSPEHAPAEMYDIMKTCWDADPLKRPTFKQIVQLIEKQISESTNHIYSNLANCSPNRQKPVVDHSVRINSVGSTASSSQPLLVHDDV", "experiment": "Inhibition of KIT N822K mutant autophosphorylation in human Kasumi 1 cells harboring KIT N822K mutation in exon 17 incubated for 45 mins by Luminex-based bead assay", "assay_type": "cell-based"}, "[4]": {"system": "GIST-430/654", "assay_type": "functional, organism-based", "settings": "Homo sapiens, dose 35.0 mg/kg, route po, time 30.0 day"}, "[5]": {"target": "T1, Receptor-type tyrosine-protein kinase FLT3 (Homo sapiens, UniProt P36888)", "T1 sequence (P36888 whole entry)": "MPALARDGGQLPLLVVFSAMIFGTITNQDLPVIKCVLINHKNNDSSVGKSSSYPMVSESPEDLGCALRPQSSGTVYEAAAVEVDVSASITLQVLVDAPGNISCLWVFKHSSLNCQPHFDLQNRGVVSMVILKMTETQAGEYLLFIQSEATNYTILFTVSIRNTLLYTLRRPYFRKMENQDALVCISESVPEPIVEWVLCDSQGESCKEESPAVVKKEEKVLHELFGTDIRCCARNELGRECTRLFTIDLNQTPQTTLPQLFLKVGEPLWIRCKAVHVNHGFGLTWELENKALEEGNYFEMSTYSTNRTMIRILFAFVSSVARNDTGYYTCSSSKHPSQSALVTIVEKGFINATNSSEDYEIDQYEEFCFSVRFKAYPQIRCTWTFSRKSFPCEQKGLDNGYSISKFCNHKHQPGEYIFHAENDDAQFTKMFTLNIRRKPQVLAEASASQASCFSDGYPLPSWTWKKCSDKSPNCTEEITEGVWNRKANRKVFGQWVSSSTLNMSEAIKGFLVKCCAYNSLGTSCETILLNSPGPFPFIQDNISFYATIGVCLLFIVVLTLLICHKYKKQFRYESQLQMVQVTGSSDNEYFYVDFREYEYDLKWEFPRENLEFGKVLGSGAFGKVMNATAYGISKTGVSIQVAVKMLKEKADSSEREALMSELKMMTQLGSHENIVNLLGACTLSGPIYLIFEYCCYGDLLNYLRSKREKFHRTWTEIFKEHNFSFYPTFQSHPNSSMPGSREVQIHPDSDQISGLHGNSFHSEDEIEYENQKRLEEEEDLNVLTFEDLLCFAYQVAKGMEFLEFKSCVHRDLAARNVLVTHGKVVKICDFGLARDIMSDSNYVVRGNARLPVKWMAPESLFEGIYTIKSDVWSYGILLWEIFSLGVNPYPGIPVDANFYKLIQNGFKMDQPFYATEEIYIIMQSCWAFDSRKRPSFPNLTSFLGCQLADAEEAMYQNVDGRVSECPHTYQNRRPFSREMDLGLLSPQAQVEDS", "experiment": "Inhibition of FLT3 (unknown origin) using 33P-ATP as substrate incubated for 120 mins by radiometric kinase assay"}}, "note": "Active and inactive are the calls of the source. The rule behind the calls is not given here."}
{"smiles": "Cn1cc(-c2ccc(CNc3cc(-c4cnc5cc(OCCCN6CCCC6)ccn45)ncn3)cc2)cn1", "note": "[IDRX-42]", "values": [{"measurement": "clearance", "setting": "[1]", "result": 36.7, "unit": "mL/min/kg"}, {"measurement": "efflux ratio at 2 h, 1 µM", "setting": "[2]", "result": 14}, {"measurement": "IC50", "setting": "[3]", "result": 4, "unit": "nM"}, {"measurement": "Activity", "setting": "[4]", "result": "Active"}, {"measurement": "IC50", "setting": "[5]", "result": 141, "unit": "nM"}]}
